Assay results published in US8765776B2, “Antihypertensive pharmaceutical composition” (Boryung Pharmaceutical Co., Ltd., priority 2011, dated 2014).
Structures can show the parent of a compound that is named as a salt.

Assays:
[1] = system: spontaneously hypertensive rats (SHR); assay: 4-week repeated oral administration antihypertensive test in spontaneously hypertensive rats (non-invasive tail-cuff CODA-6); type: in vivo, rat; details: 4 weeks; for Antihypertensive degree with consecutive 4-week administration of drugs, as compared to blood pressure prior to administration (Mean): n=8, F1 = Fimasartan potassium trihydrate 3 mg/kg, F2 = 10 mg/kg, L = Losartan potassium 10 mg/kg, V = Valsartan 10 mg/kg, A1 = Amlodipine besylate 0.5 mg/kg, A2 = 1.6 mg/kg
Excerpt: This study is intended to examine antihypertensive action of individual drugs. For this purpose, test drugs, i.e., Fimasartan potassium trihydrate, Losartan potassium salt, Valsartan, Amlodipine besylate, a combination of Fimasartan potassium trihydrate with Amlodipine besylate, a combination of Losartan potassium salt with Amlodipine besylate, and a combination of Valsartan with Amlodipine besylate were repeatedly and orally administered for 4 weeks to rats with essential hypertension. […] In this manner, the antihypertensive action was compared and evaluated between the individual drugs.
8-week old male spontaneously hypertensive rats (SHR), weighing 230 to 250 g, were purchased from Charles River Japan (CRJ). The animals were used in the test, after being subjected to an acclimation period until the animals were 18 to 19-week old (340 to 380 g) to reach a mean blood pressure of 160 to 170 mmHg. Animals with a good condition were selected by minute observation over the acclimation period prior to the test, and divided into individual test groups, each consisting of 8 animals (n=8). Only the selected animals, from which a rise in blood pressure was confirmed using a non-invasive blood pressure monitoring system (CODA-6), were assigned to the test group.
Low, medium and high doses of the drugs according to individual drugs were established in the preliminary test. […] All the doses referred to those used in the already performed test. Doses and drug-administered groups used in the final main test are as follows.
As an ARB compound, Losartan potassium salt, Valsartan and Fimasartan potassium trihydrate were respectively purchased and used from Zhejiang Huahai Pharmaceutical Co., Ltd. 10 mg/kg of Losartan potassium salt was taken as an L group, and 10 mg/kg of Valsartan was taken as a V group. With regard to Fimasartan potassium trihydrate, 3 mg/kg was taken as an F1 group, and 10 mg/kg was taken as an F2 group.
As a calcium channel blocker, Amlodipine besylate (home-made by the method described in U.S. Pat. No. 4,572,909) was used. 0.5 mg/kg of Amlodipine besylate was taken as an A 1 group, and a dose of 1.6 mg/kg was taken as an A2 group. The test materials and the comparative drugs were each suspended in 0.5% carboxymethylcellulose sodium salt (CMC—Na, Sigma) prior to using. As a control group, 0.5% CMC alone was administered.
{circumflex over (3)} Test Method • Administration: Upon carrying out the administration, the drug preparation was heated to a suitable temperature of 35° in a water bath, followed by forced oral administration of 5 mL/kg via a stomach sonde. • Measurement of blood pressure: Blood pressure of rats was measured as follows. Rats were restrained and placed in a heating device which was then heated to a temperature of about 40° (based on the temperature of 37° in a restraining cage) over 13 minutes, such that the tail blood vessels were engorged, and the blood pressure of rats was measured using CODA-6 equipment that monitors a blood pressure by means of the software of the main body through a pair of cuffs attached to the tail. The non-invasive blood pressure measuring method via CODA-6 (Kent Scientific Corporation) enables a long-term blood pressure measuring test that should involve repeated administration of test materials, which is not feasible with a direct blood pressure measuring method through arterial cannulation, such as conventionally used physiograph or power lab.
Changes in blood pressure were confirmed with focusing on changes in mean arterial pressure (MAP), and changes in diastolic and systolic blood pressure, heart rate, and body weight were used as references for other changes in the experimental results.

[2] = system: patients with mild to moderate essential hypertension; details: Week 12 of drug administration, dose 60 mg to 120 mg; cited from earlier work

| Compound | Antihypertensive degree with consecutive 4-week administration of drugs, as compared to blood pressure prior to administration (Mean) [1] [mmHg] | further results |
| --- | --- | --- |
| CCOC(=O)C1=C(COCCN)NC(C)=C(C(=O)OC)C1c1ccccc1Cl (single isomer, unassigned) [Comparative Example 5, Amlodipine besylate] | −13 |  |
| CCOC(=O)C1=C(COCCN)NC(C)=C(C(=O)OC)C1c1ccccc1Cl (single isomer, unassigned) [Comparative Example 6, Amlodipine besylate] | −20 |  |
| CCCCc1nc(C)c(CC(=S)N(C)C)c(=O)n1Cc1ccc(-c2ccccc2-c2nnn[nH]2)cc1 [Comparative Example 1, Fimasartan potassium trihydrate] |  | Antihypertensive effect compared to Comparative Example 3 and Comparative Example 4 ([1]; 3 mg/kg Fimasartan potassium trihydrate vs 10 mg/kg Losartan potassium or Valsartan): superior antihypertensive effect; Antihypertensive degree with consecutive 4-week administration of drugs, as compared to blood pressure prior to administration (Mean) ([1]; potassium trihydrate): −35 mmHg |
| CCCCc1nc(C)c(CC(=S)N(C)C)c(=O)n1Cc1ccc(-c2ccccc2-c2nnn[nH]2)cc1 [Comparative Example 2, Fimasartan potassium trihydrate] |  | Antihypertensive degree with consecutive 4-week administration of drugs, as compared to blood pressure prior to administration (Mean) ([1]; potassium trihydrate): −50 mmHg |
| CCCCc1nc(Cl)c(CO)n1Cc1ccc(-c2ccccc2-c2nn[nH]n2)cc1 [Comparative Example 3, Losartan potassium salt] | −20 |  |
| CCCCC(=O)N(Cc1ccc(-c2ccccc2-c2nnn[nH]2)cc1)[C@H](C(=O)O)C(C)C [Comparative Example 4, Valsartan] | −32 |  |
| CCCCc1nc(Cl)c(CO)n1Cc1ccc(-c2ccccc2-c2nn[nH]n2)cc1 [Losartan] |  | Change in diastolic blood pressure (DBP) in the sitting position relative to baseline [2]: −8.56±7.72 mmHg |
